Reference: US10597388B2, “Pyridazinone herbicides” (FMC CORPORATION, priority 2014, dated 2020)

How the values were obtained:
Assay in all cases: Test C greenhouse herbicide test, pre- and postemergence
Type in all cases: in vivo
soybean (Glycine max) = system: soybean (Glycine max)
Summary of the method: (§1)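 Visual ratings on a 0 to 100 scale (0 = no effect, 100 = complete control) versus untreated controls, scored 13–15 d after treatment. Soil-applied preemergence to seeded loam/sand; foliar postemergence to 1- to 4-leaf plants (2–18 cm) in peat-vermiculite mix; compounds formulated in solvent plus surfactant.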

[1] = system: velvetleaf (Abutilon theophrasti)
Summary of the method: as §1

[2] = system: pigweed (Amaranthus retroflexus)
Summary of the method: as §1

[3] = system: crabgrass, large (large crabgrass, Digitaria sanguinalis)
Summary of the method: as §1

[4] = system: foxtail, giant (giant foxtail, Setaria faberii)
Summary of the method: as §1

corn (Zea mays) = system: corn (Zea mays)
Summary of the method: as §1

[5] = system: waterhemp (common waterhemp, Amaranthus rudis)
Summary of the method: as §1

[6] = system: ryegrass, Italian (Italian ryegrass, Lolium multiflorum)
Summary of the method: as §1

[7] = system: barnyardgrass (Echinochloa crus-galli)
Summary of the method: as §1

[8] = system: blackgrass (Alopecurus myosuroides)
Summary of the method: as §1

[9] = system: nutsedge, yellow (yellow nutsedge, Cyperus esculentus)
Summary of the method: as §1

[10] = system: morningglory (Ipomoea coccinea)
Summary of the method: as §1

[11] = system: galium (catchweed bedstraw, Galium aparine)
Summary of the method: as §1

[12] = system: lambsquarters (Chenopodium album)
Summary of the method: as §1

[13] = system: wheat (winter wheat, Triticum aestivum)
Summary of the method: as §1

[14] = Postemergence, 31 g ai/ha, 0 to 100 scale (0 no effect, 100 complete control)
[15] = Postemergence, 125 g ai/ha, scale 0 to 100, 0 is no effect, 100 is complete control
[16] = Postemergence, 250 g ai/ha, scale 0 to 100, 0 no effect, 100 complete control, 13 to 15 d
[17] = Preemergence, 62 g ai/ha, scale 0 to 100, 0 is no effect, 100 is complete control
[18] = Preemergence, 125 g ai/ha, scale 0 to 100, 0 is no effect, 100 is complete control
[19] = Preemergence, 250 g ai/ha, scale 0 to 100, 0 no effect, 100 complete control
[20] = postemergence, 62 g ai/ha, scale 0 to 100, 0 no effect, 100 complete control
[21] = Preemergence, 31 g ai/ha, scale 0 to 100, 0 is no effect, 100 is complete control

Cc1ccc2ccccc2c1-c1c(O)c(I)nn(C)c1=O [Compound 29]
Soybean plant response rating (soybean (Glycine max); [14]): 0
Plant response rating, Soybean (soybean (Glycine max); [15]): 20
Plant response rating, Soybean (soybean (Glycine max); [16]): 25
Plant response rating, Soybean (soybean (Glycine max); [17]): 0
Plant response rating, Soybean (soybean (Glycine max); [18]): 0
Soybean plant response rating (soybean (Glycine max); [19]): 0
Soybean plant response rating (soybean (Glycine max); [20]): 10
Velvetleaf plant response rating [1, 14]: 35
Plant response rating, Velvetleaf [1, 15]: 85
Plant response rating, Velvetleaf [1, 16]: 90
Plant response rating, Velvetleaf [1, 17]: 90
Plant response rating, Velvetleaf [1, 18]: 100
Velvetleaf plant response rating [1, 19]: 100
Velvetleaf plant response rating [1, 20]: 80
Pigweed plant response rating [2, 14]: 95
Plant response rating, Pigweed [2, 15]: 98
Plant response rating, Pigweed [2, 16]: 98
Plant response rating, Pigweed [2, 21]: 100
Plant response rating, Pigweed [2, 17]: 100
Plant response rating, Pigweed [2, 18]: 100
Pigweed plant response rating [2, 19]: 100
Pigweed plant response rating [2, 20]: 95
Crabgrass, Large plant response rating [3, 14]: 10
Plant response rating, Crabgrass, Large [3, 15]: 50
Plant response rating, Crabgrass, Large [3, 16]: 40
Plant response rating, Crabgrass, Large [3, 21]: 5
Plant response rating, Crabgrass, Large [3, 17]: 5
Plant response rating, Crabgrass, Large [3, 18]: 55
Crabgrass, Large plant response rating [3, 19]: 90
Crabgrass, Large plant response rating [3, 20]: 20
Foxtail, Giant plant response rating [4, 14]: 30
Plant response rating, Foxtail, Giant [4, 15]: 60
Plant response rating, Foxtail, Giant [4, 16]: 80
Plant response rating, Foxtail, Giant [4, 21]: 75
Plant response rating, Foxtail, Giant [4, 17]: 75
Plant response rating, Foxtail, Giant [4, 18]: 90
Foxtail, Giant plant response rating [4, 19]: 95
Foxtail, Giant plant response rating [4, 20]: 35
Corn plant response rating (corn (Zea mays); [14]): 0
Plant response rating, Corn (corn (Zea mays); [15]): 30
Plant response rating, Corn (corn (Zea mays); [16]): 20
Plant response rating, Corn (corn (Zea mays); [21]): 0
Plant response rating, Corn (corn (Zea mays); [17]): 0
Plant response rating, Corn (corn (Zea mays); [18]): 0
Corn plant response rating (corn (Zea mays); [19]): 45
Corn plant response rating (corn (Zea mays); [20]): 10
Waterhemp plant response rating [5, 14]: 70
Plant response rating, Waterhemp [5, 15]: 80
Plant response rating, Waterhemp [5, 16]: 98
Plant response rating, Waterhemp [5, 17]: 100
Plant response rating, Waterhemp [5, 18]: 100
Waterhemp plant response rating [5, 19]: 100
Waterhemp plant response rating [5, 20]: 80
Ryegrass, Italian plant response rating [6, 14]: 70
Plant response rating, Ryegrass, Italian [6, 15]: 85
Plant response rating, Ryegrass, Italian [6, 16]: 95
Plant response rating, Ryegrass, Italian [6, 21]: 90
Plant response rating, Ryegrass, Italian [6, 17]: 90
Plant response rating, Ryegrass, Italian [6, 18]: 90
Ryegrass, Italian plant response rating [6, 19]: 90
Ryegrass, Italian plant response rating [6, 20]: 80
Barnyardgrass plant response rating [7, 14]: 15
Plant response rating, Barnyardgrass [7, 15]: 40
Plant response rating, Barnyardgrass [7, 16]: 40
Plant response rating, Barnyardgrass [7, 21]: 10
Plant response rating, Barnyardgrass [7, 17]: 35
Plant response rating, Barnyardgrass [7, 18]: 80
Barnyardgrass plant response rating [7, 19]: 90
Barnyardgrass plant response rating [7, 20]: 25
Blackgrass plant response rating [8, 14]: 40
Plant response rating, Blackgrass [8, 15]: 60
Plant response rating, Blackgrass [8, 16]: 75
Plant response rating, Blackgrass [8, 21]: 50
Plant response rating, Blackgrass [8, 17]: 50
Plant response rating, Blackgrass [8, 18]: 85
Blackgrass plant response rating [8, 19]: 85
Blackgrass plant response rating [8, 20]: 50
Nutsedge, Yellow plant response rating [9, 14]: 25
Plant response rating, Nutsedge, Yellow [9, 16]: 75
Plant response rating, Nutsedge, Yellow [9, 21]: 15
Plant response rating, Nutsedge, Yellow [9, 17]: 80
Plant response rating, Nutsedge, Yellow [9, 18]: 85
Nutsedge, Yellow plant response rating [9, 19]: 85
Nutsedge, Yellow plant response rating [9, 20]: 35
Morningglory plant response rating [10, 14]: 85
Plant response rating, Morningglory [10, 15]: 100
Plant response rating, Morningglory [10, 16]: 100
Plant response rating, Morningglory [10, 21]: 80
Plant response rating, Morningglory [10, 17]: 95
Plant response rating, Morningglory [10, 18]: 95
Morningglory plant response rating [10, 19]: 98
Morningglory plant response rating [10, 20]: 100
Galium plant response rating [11, 14]: 90
Plant response rating, Galium [11, 15]: 100
Plant response rating, Galium [11, 16]: 100
Plant response rating, Galium [11, 21]: 95
Plant response rating, Galium [11, 17]: 95
Plant response rating, Galium [11, 18]: 98
Galium plant response rating [11, 19]: 98
Galium plant response rating [11, 20]: 95
Lambsquarters plant response rating [12, 14]: 80
Plant response rating, Lambsquarters [12, 15]: 85
Plant response rating, Lambsquarters [12, 16]: 90
Plant response rating, Lambsquarters [12, 21]: 75
Plant response rating, Lambsquarters [12, 17]: 80
Plant response rating, Lambsquarters [12, 18]: 80
Lambsquarters plant response rating [12, 19]: 90
Lambsquarters plant response rating [12, 20]: 85
Wheat plant response rating [13, 14]: 5
Plant response rating, Wheat [13, 15]: 30
Plant response rating, Wheat [13, 16]: 10
Plant response rating, Wheat [13, 17]: 5
Plant response rating, Wheat [13, 18]: 45
Wheat plant response rating [13, 19]: 50
Wheat plant response rating [13, 20]: 5
